This note sets out measurements from the supplement of paper PMC8671470.

Common to all, as to assay: cell viability (% survival relative to DMSO control, bortezomib = 0%); higher = less cytotoxic
Settings in all cases: 72 h

The subject of one experiment is KU-812. Summed up: (§1)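 Fifteen myeloid leukaemia cell lines were exposed to compounds at 1, 10, 100, 1000 or 10000 nM in 384-well plates for 72 h at 37 °C and 5% CO2. Viability was read by CellTiter-Glo luminescence and normalised, with vehicle as 100% and a 10 µM positive control as 0%. Values are percent survival averaged over duplicates.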
In another experiment the test system is NOMO-1. In short, it runs like this:
as §1

Another experiment relates to HEL. Summed up:
as §1

The next experiment deals with HL-60. Summed up:
as §1

As to `CCN(CC)CCN(Cc1ccc(-c2ccc(C(F)(F)F)cc2)cc1)C(=O)Cn1c(SCc2ccc(F)cc2)nc(=O)c2c1CCC2` [Darapladib], the cell viability in the experiment with KU-812 (1 nM) is 110%; in the experiment with KU-812 (10 nM), 93.6%; in the experiment with KU-812 (100 nM) it was 100%; with KU-812 (1000 nM), 80.7%; in the experiment with KU-812 (10000 nM), -0.56%; with NOMO-1 (1 nM) it was 98.6%. Moreover, the cell viability in the experiment on NOMO-1 (10 nM) is 98.8%; in the experiment with NOMO-1 (100 nM) it was 97%; in the experiment with NOMO-1 (1000 nM) it was 93.8%; in the experiment on NOMO-1 (10000 nM) it was -0.418%; in the experiment on HEL (1 nM), 99.5%; in the experiment with HEL (10 nM) it was 103%. The cell viability in the experiment with HEL (100 nM) is 105%; with HEL (1000 nM) it was 91.1%; in the experiment on HEL (10000 nM), -0.527%; in the experiment with HL-60 (1 nM) it was 101%; with HL-60 (10 nM), 95.7%; in the experiment on HL-60 (100 nM), 101%. Further, the cell viability in the experiment with HL-60 (1000 nM) was 81.9%; in the experiment on HL-60 (10000 nM), -0.402%.
With `Oc1cc(Cl)ccc1Oc1ccc(Cl)cc1Cl` [Triclosan], the cell viability in the experiment on KU-812 (1 nM) stood at 98.8%; with KU-812 (10 nM), 87%; with KU-812 (100 nM) it was 99.2%; in the experiment on KU-812 (1000 nM), 98%; in the experiment on KU-812 (10000 nM), 57.9%; with NOMO-1 (1 nM), 102%. The cell viability in the experiment on NOMO-1 (10 nM) turned out to be 89%; in the experiment on NOMO-1 (100 nM) it was 99.3%; with NOMO-1 (1000 nM), 104%; in the experiment on NOMO-1 (10000 nM), 105%; in the experiment on HEL (1 nM) it was 118%; with HEL (10 nM) it was 110%. The cell viability in the experiment with HEL (100 nM) is 86.3%; in the experiment on HEL (1000 nM), 105%; in the experiment with HEL (10000 nM), 108%; in the experiment on HL-60 (1 nM) it was 90.3%; in the experiment on HL-60 (10 nM), 76.6%; in the experiment on HL-60 (100 nM), 85.1%. The cell viability in the experiment with HL-60 (1000 nM) amounted to 106%; with HL-60 (10000 nM), 102%.
With `CC12CCC(O)CC1CCC1C2CCC2(C)C(C3=CC(=O)OC3)CCC12O` (stereo not given) [Digitoxigenin], the cell viability in the experiment on KU-812 (1 nM) turned out to be 105%; in the experiment with KU-812 (10 nM), 97.4%; in the experiment with KU-812 (100 nM), 101%; in the experiment with KU-812 (1000 nM) it was 7.21%; with KU-812 (10000 nM), 3.46%; in the experiment with NOMO-1 (1 nM), 110%. Also, the cell viability is 96% in the experiment on NOMO-1 (10 nM); 109% with NOMO-1 (100 nM); 11.3% in the experiment with NOMO-1 (1000 nM); -1.17% in the experiment with NOMO-1 (10000 nM); 102% with HEL (1 nM); 99.1% in the experiment on HEL (10 nM). Besides, the cell viability was 103% in the experiment on HEL (100 nM); 1.26% in the experiment with HEL (1000 nM); -1.18% in the experiment on HEL (10000 nM); 101% in the experiment with HL-60 (1 nM); 105% with HL-60 (10 nM); 103% with HL-60 (100 nM). The cell viability is 1.05% in the experiment on HL-60 (1000 nM) and -1.85% with HL-60 (10000 nM).

As a reminder, the cell viability is a read-out of living cells in per cent, often relative to untreated cells.
